Reference: patent publication US20140296212A1, “SUBSTITUTED PHENOXYPROPYLCYCLOAMINE DERIVATIVES AS HISTAMINE-3 (H3) RECEPTOR LIGANDS” (CEPHALON, INC., priority 2009, published 2014)

Legend:
[1] = target: T1, rat histamine H3 receptor (Rattus norvegicus, UniProt Q9QYN8); experiment: Rat H3 radioligand binding ([3H]-N-alpha-methylhistamine, SPA); conditions: membranes of CHO-A3 cells expressing rat H3; [3H]-N-alpha-methylhistamine; read-out: Rat H3 Ki
T1 construct: encoding the entire 445-amino-acid rat histamine H3 receptor; expressed in transfected cells
T1 sequence (Q9QYN8 whole entry): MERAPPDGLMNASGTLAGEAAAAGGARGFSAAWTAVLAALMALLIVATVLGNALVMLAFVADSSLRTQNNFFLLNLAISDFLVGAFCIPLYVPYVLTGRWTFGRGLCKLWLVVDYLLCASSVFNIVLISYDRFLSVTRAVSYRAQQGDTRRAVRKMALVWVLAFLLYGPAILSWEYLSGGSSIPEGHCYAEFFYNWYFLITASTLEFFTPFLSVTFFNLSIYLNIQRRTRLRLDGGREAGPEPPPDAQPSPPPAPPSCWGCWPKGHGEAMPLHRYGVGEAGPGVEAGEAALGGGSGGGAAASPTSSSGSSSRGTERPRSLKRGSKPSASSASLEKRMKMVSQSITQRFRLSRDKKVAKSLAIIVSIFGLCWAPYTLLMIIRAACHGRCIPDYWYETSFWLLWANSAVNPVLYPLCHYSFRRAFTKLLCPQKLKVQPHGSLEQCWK
Outline: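 Membranes from CHO-A3 cells stably expressing full-length rat H3 receptor (445 aa) incubated with ~1 nM [3H]-N-alpha-methylhistamine and compound (0.01 nM–30 μM) in 50 mM Tris HCl pH 7.4, 5 mM MgCl2, 0.1% BSA, 4 h, room temperature; SPA bead read-out. Non-specific binding defined with 10 μM clobenpropit.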

[2] = target: T2, human H3 receptor (Homo sapiens, UniProt Q9Y5N1); experiment: Human H3 radioligand binding ([3H]-N-alpha-methylhistamine, SPA); conditions: membranes of CHO cells expressing human H3
T2 construct: expressed in transfected cells
T2 sequence (Q9Y5N1 whole entry): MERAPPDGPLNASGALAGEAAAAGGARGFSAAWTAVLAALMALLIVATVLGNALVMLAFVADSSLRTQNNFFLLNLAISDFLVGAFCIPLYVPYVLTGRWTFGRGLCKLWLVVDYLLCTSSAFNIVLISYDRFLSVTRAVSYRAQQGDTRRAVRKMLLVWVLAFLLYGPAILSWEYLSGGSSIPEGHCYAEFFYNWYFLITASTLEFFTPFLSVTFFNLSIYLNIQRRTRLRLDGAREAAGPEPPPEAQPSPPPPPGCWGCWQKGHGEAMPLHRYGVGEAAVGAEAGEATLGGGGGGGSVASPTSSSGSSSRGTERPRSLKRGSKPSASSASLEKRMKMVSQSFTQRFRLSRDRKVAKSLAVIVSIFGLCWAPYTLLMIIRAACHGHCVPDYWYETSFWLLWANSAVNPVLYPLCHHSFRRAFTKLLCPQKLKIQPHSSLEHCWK
Outline: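 Membranes from H3-expressing cells (10 μg protein/well) in 50 mM Tris HCl pH 7.4, 5 mM MgCl2, 0.1% BSA with ~1 nM [3H]-N-alpha-methylhistamine and compound (0.01 nM–30 μM), SPA beads, 4 h, room temperature, dark. Non-specific binding defined with 10 μM clobenpropit; bound radioligand read by scintillation counting.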

Ki [1] [nM]	melting point	Ki [2] [nM]	SMILES
0.1 to 100	75 °C	0.1 to 100	CC(C)C(=O)N1CCN(CC(=O)c2ccc(OCCCN3CCC[C@H]3C)c(F)c2)CC1 [Example 121, 1-[4-(2-{3-Fluoro-4-[3-((R)-2-methyl-pyrrolidin-1-yl)-propoxy]-phenyl}-2-oxoethyl)-piperazin-1-yl]-2-methyl-propan-1-one]
0.1 to 100	185 to 190 °C	0.1 to 100	C[C@@H]1CCCN1CCCOc1ccc(C(=O)CN2CCN(C(=O)C3CCCO3)CC2)cc1 (stereo partly drawn) [Example 83, 1-{4-[3-((R)-2-Methyl-pyrrolidin-1-yl)-propoxy]-phenyl}-2-[4-(tetrahydro-furan-2-carbonyl)-piperazin-1-yl]-ethanone]
101 to 500	110 to 120 °C	0.1 to 100	Cc1cc(C(=O)CN2CCN(C(=O)c3ccccc3)CC2)cc(C)c1OCCCN1CCC[C@H]1C [Example 106, 2-(4-Benzoyl-piperazin-1-yl)-1-{3,5-dimethyl-4-[3-((R)-2-methyl-pyrrolidin-1-yl)-propoxy]-phenyl}-ethanone]
101 to 500	160 to 165 °C (dec.)	0.1 to 100	CC(C)N1CCC(Oc2ccc(C(=O)CN3CCCC(F)(F)C3)cc2)CC1 [Example 53, 2-(3,3-Difluoro-piperidin-1-yl)-1-[4-(1-isopropyl-piperidin-4-yloxy)-phenyl]-ethanone]
> 1000	251 °C	501 to 1000	O=C(CN1CCOCC1)c1ccc(OCCCN2CCN3CCCCC3C2)cc1 (stereo not drawn) [Example 62, 2-Morpholin-4-yl-1-{4-[3-(octahydro-pyrido[1,2-a]pyrazin-2-yl)-propoxy]-phenyl}-ethanone]
0.1 to 100	198 to 199 °C	0.1 to 100	C[C@@H]1CCCN1CCCOc1ccc(C(=O)CN2CCN(C(=O)OC(C)(C)C)CC2)cc1 [Example 117, 4-(2-{4-[3-((R)-2-Methyl-pyrrolidin-1-yl)-propoxy]-phenyl}-2-oxo-ethyl)-piperazine-1-carboxylic acid tert-butyl ester]
0.1 to 100	225 to 229 °C	0.1 to 100	C[C@@H]1CCCN1CCCOc1ccc(C(=O)CN2CCN(C(=O)c3ccc(F)cc3)CC2)cc1 [Example 101, 2-[4-(4-Fluoro-benzoyl)-piperazin-1-yl]-1-{4-[3-((R)-2-methyl-pyrrolidin-1-yl)-propoxy]-phenyl}-ethanone]
> 1000	122 to 135 °C	101 to 500	O=C(CN1CCC(F)(F)CC1)c1ccc(OCCCN2CCCCC2)c(Cl)c1 [Example 147, 1-[3-Chloro-4-(3-piperidin-1-yl-propoxy)-phenyl]-2-(4,4-difluoro-piperidin-1-yl)-ethanone]
0.1 to 100	90 to 96 °C	0.1 to 100	C[C@@H]1CCCN1CCCOc1ccc(C(=O)CN2CCCCc3ccccc32)cc1 [Example 114, 1-{4-[3-((R)-2-Methyl-pyrrolidin-1-yl)-propoxy]-phenyl}-2-(2,3,4,5-tetrahydro-benzo[b]azepin-1-yl)-ethanone]
> 1000	> 200 °C (dec.)	> 1000	COC[C@H]1CCCN1CCCOc1ccc(C(=O)CN2CCOCC2)cc1 [Example 71, 1-{4-[3-((R)-2-Methoxymethyl-pyrrolidin-1-yl)-propoxy]-phenyl}-2-morpholin-4-yl-ethanone]
101 to 500	110 to 120 °C	0.1 to 100	C[C@@H]1CCCN1CCCOc1cccc(C(=O)CN2CCC(F)(F)CC2)c1 [Example 154, 2-(4,4-Difluoro-piperidin-1-yl)-1-{3-[3-((R)-2-methyl-pyrrolidin-1-yl)-propoxy]-phenyl}-ethanone]
101 to 500	177 °C	0.1 to 100	C[C@@H]1CCCN1CCCOc1c(Cl)cc(C(=O)CN2CCN(c3ncccn3)CC2)cc1Cl [Example 111, 1-{3,5-Dichloro-4-[3-((R)-2-methyl-pyrrolidin-1-yl)-propoxy]-phenyl}-2-(4-pyrimidin-2-yl-piperazin-1-yl)-ethanone]
0.1 to 100	230 to 232 °C	0.1 to 100	C[C@@H]1CCCN1CCCOc1ccc(C(=O)CN2CCN(C(=O)C3CCCCC3)CC2)cc1 [Example 93, 2-(4-Cyclohexanecarbonyl-piperazin-1-yl)-1-{4-[3-((R)-2-methyl-pyrrolidin-1-yl)-propoxy]-phenyl}-ethanone]
0.1 to 100	214 to 217 °C	0.1 to 100	C[C@@H]1CCCN1CCCOc1ccc(C(=O)CN2CCN(C(=O)c3cc4ccccc4s3)CC2)cc1 [Example 124, 2-[4-(Benzo[b]thiophene-2-carbonyl)-piperazin-1-yl]-1-{4-[3-((R)-2-methyl-pyrrolidin-1-yl)-propoxy]-phenyl}-ethanone]
101 to 500	236 to 243 °C	0.1 to 100	O=C(CN1CCOCC1)c1ccc(OCCCN2CCCCC2)cc1 [Example 78, 2-Morpholin-4-yl-1-[4-(3-piperidin-1-yl-propoxy)-phenyl]-ethanone]
101 to 500	122 to 124 °C	0.1 to 100	COC(=O)N1CCN(CC(=O)c2ccc(OCCCN3CCC[C@H]3C)c(Cl)c2)CC1 [Example 132, 4-(2-{3-Chloro-4-[3-((R)-2-methyl-pyrrolidin-1-yl)-propoxy]-phenyl}-2-oxo-ethyl)-piperazine-1-carboxylic acid methyl ester]
0.1 to 100	115 to 117 °C	0.1 to 100	C[C@@H]1CCCN1CCCOc1ccc(C(=O)CN2CCN(C(=O)c3ccc(F)cc3F)CC2)cc1 [Example 126, 2-[4-(2,4-Difluoro-benzoyl)-piperazin-1-yl]-1-{4-[3-((R)-2-methyl-pyrrolidin-1-yl)-propoxy]-phenyl}-ethanone]
0.1 to 100	108 to 120 °C	0.1 to 100	C[C@@H]1CCCN1CCCOc1ccc(C(=O)CN2CCCC(C)(C)C2)cc1 [Example 55, 2-(3,3-Dimethyl-piperidin-1-yl)-1-{4-[3-((R)-2-methyl-pyrrolidin-1-yl)-propoxy]-phenyl}-ethanone]
